According to paper PMC8279484 (Journal of Medicinal Chemistry, 2021):

Columns and labels:
THP-1 LUCIA monocytes [1] = experiment: Intrinsic cytotoxicity: LDH release without LPS; type: cell-based, human; details: for Intrinsic Toxicity Level: LDH-associated level of cytotoxicity (high / moderate / low); for intrinsic LDH release versus vehicle / spontaneous cell release: absence of LPS, 24 h, controls Dex 1 μM, 2 1 pM, 5 1 pM; for Intrinsic Toxicity TC50 (pM): half-maximal intrinsic LDH-associated toxic activity, no LPS
In short: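 THP-1-Lucia NF-κB cells exposed 24 h to compounds, vehicle or controls, then LPS-stimulated for extrinsic, unstimulated for intrinsic. Supernatant LDH read at 490 nm minus 690 nm, relative to vehicle; maximum release from 2% Triton-X-100 lysis, spontaneous release from untreated cells; LPS response set to 100%.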

IL-6 = experiment: LPS-induced IL-6 release from THP-1 Lucia monocytes (multiplex electrochemiluminescence); type: cell-based, human; details: for IC50: Homo sapiens, THP-1; for IC50 / Imax, IL-6 release: LPS 50 ng/mL, 24 h; for Imax, IL-6 release: concentration–response
Protocol: (§1) LXA41 and all of the tested sLXms were dissolved in ethanol and further diluted in a culture medium (final ethanol concentration 0.1%; equivalent concentrations were used as the vehicle control). Prior to in vitro experiments, THP-1-Lucia NF-κB cells were harvested and plated at 1 × 10^5 cells/well on 96-well plates and left to settle in the incubator at 37 °C, 95% humidity, and 5% CO2, in 0.1% FBS-containing media, pretreated for 30 min with increasing doses of LXA41, sLXms (from 10^–12 to 10^–6 M), or appropriate controls, followed by stimulation with 50 ng/mL LPS for 24 h. Untreated (Unt) or vehicle-treated (Veh) cells were used as negative controls; 1 pM (1R)-5, the (1R)-epimer of the benzo-mimetic, was used as a positive control for any aromatic mimetic; and, finally, we compared the observed effects to the conventional glucocorticoid dexamethasone (Dex) treatment, at 1 μM.
(§2) After 24 h of exposure to LXA41, sLXms, or vehicle, followed by LPS stimulation (50 ng/mL), as described above, THP-1-Lucia NF-κB-cell supernatants were collected and cleared by centrifugation. Concentrations of IFN-γ, IL-1β, IL-6, IL-8, IL-10, IL-12p70, and TNF-α in culture supernatants were assessed by electro-chemi-luminescent detection, using a commercially available human 96-well plate “multiplex” (several analytes in the same well) kit for tissue culture samples, according to the manufacturers’ guidelines.
(§3) The “coding” of the heat-map indicates the arbitrary criteria to assign points to each single PD component (efficacy = Imax or Emax; potency = IC50 or EC50; slope = HS) to generate a final (aggregate) relative PD score. If a single PD component was greater than the reference level (x > 1), then the single-component relative score was arbitrarily set to +1 (light green) or +2 (dark green). If a single PD component was equal to the reference level (x = 1), then the single-component relative score was arbitrarily set to 0 (gray). If a single PD component was smaller than the reference level (x < 1), then the single-component relative score was arbitrarily set to −1 (light red) or −2 (dark red). If the curve of a single PD component was best fitting to a flat line (x = 0), then the single-component relative score was arbitrarily set to −4 (purple) (Table S1).

IL-1β = experiment: LPS-induced IL-1β release from THP-1 Lucia monocytes (multiplex electrochemiluminescence); type: cell-based, human; details: for IC50: Homo sapiens, THP-1
Protocol: as §1, §2, §3

IL-8 = experiment: LPS-induced IL-8 release from THP-1 Lucia monocytes (multiplex electrochemiluminescence); type: cell-based, human; details: Dex 1 μM; 1 1 nM; (R)-6 concentration not given
Protocol: as §1, §2

wild-type HEK-293 cells = experiment: Intracellular calcium flux in wild-type HEK-293 (specificity control); type: cell-based, human
Protocol: To explore the mechanism of action through which the sLXm lead compound exerts the effects seen here, its interaction with the ALX/FPR2 receptor was investigated and agonist-induced intracellular calcium transients were measured using an engineered cell line stably overexpressing the ALX/FPR2 receptor and the Gαq subunit coupled to it (Figure S6). Wild-type HEK cells were used as controls, to verify the specificity of the agonism toward ALX/FPR2, as previously reported.[36] Briefly, prior to cell plating, sterile 96-well plates (black-sided with optically clear glass flat bottoms) were PDL-coated overnight. Subsequently, 2 × 10^5 wild-type cells and overexpressed cells/well were cultured for 18 h in DMEM complete media (containing Ca^2+ and Mg^2+) to facilitate adherence prior to labeling with Fluo-4 dye. After 1 h of incubation at 37 °C with Fluo-4, cells were gently washed twice and placed in 100% Hanks’ balanced salt solution (HBSS; 37 °C) before reading the fluorescence (485/535 nm), using a spectrophotometer conjugated with an injection system (Clariostar BMG LABTECH plate reader), allowing addition to the cells of controls (1 mM ATP, a GPCR purinergic agonist, 2 nM Wp, a synthetic ALX/FPR2 agonist) or experimental treatments [10 pM, 1 nM, and 100 nM LXA41 or (R)-6].

NF-κB = system: NF-κB; parameters: method as in PMID 30213823; details: LXA4 1 0.1 nM; 2 1 nM; cited from earlier work
C57bl/6 mice = experiment: Murine carrageenan-induced paw edema; type: in vivo, mouse; parameters: Paw swelling Index: Mean: unit not given here; details: for % reduction relative to carageenan-induced level / % relative to carageenan-induced level: (R)-6, (R)-17 2 μg/kg, Naproxen 50 mg/kg p.o.; for % relative to carageenan-induced level: Veh = 100; for effect on inflammatory response (paw swelling), in words / Paw swelling Index: Mean: (R)-6, (R)-17 2 μg/kg ip, Naproxen 50 mg/kg po; for Paw swelling Index: Mean: n = 3
Protocol: Then, 50 μL of 1% carrageenan was injected with an equivalent volume of saline injected into the contralateral paw. Inflammation was presented as the difference in paw thickness over time using gauge (POCO 2T; Kroeplin, GmbH, Surrey, U.K.). Data are presented as mean ± SEM, n = 3 mice/treatment group.

THP-1 LUCIA monocytes [2] = experiment: Extrinsic cytotoxicity: LDH release after LPS challenge; type: cell-based, human; details: for % LDH release relative to LPS: LPS 24 h
Protocol: We investigated the potential cytotoxicity of all candidate sLXms by assaying LDH release.[50] The response to LPS was arbitrarily set to 100%, and values were expressed relative to this. As previously reported by others, LPS provokes LDH release.[51] […] Ultimately, untreated cells defined the spontaneous cell release thresholds.
Lactate dehydrogenase (LDH) was assayed in cell supernatants to investigate possible cytotoxicity of the lead compound. LDH is rapidly released into the culture medium after disruption of the plasma membrane.[67],[69] After 24 h of exposure to sLXms, vehicle, or controls, followed by LPS stimulation, as described above, THP-1-Lucia NF-κB-cell supernatants were collected and LDH was assayed. Cytotoxicity was evaluated relative to vehicle controls. Maximum releasable LDH was determined in cells lysed with 2% Triton-X-100 (Sigma-Aldrich, Ireland). LDH levels were assessed by reading the absorbance at 490 nm (protein) and 690 nm (background noise), using a spectrophotometer (SPECTRAMAX M2, Molecular Devices (U.K.) Limited).

Row | SMILES | Intrinsic Toxicity Level (THP-1 LUCIA monocytes [1]) | intrinsic LDH release versus vehicle / spontaneous cell release (THP-1 LUCIA monocytes [1]) | Intrinsic Toxicity TC50 (pM) (THP-1 LUCIA monocytes [1]) | IC50 (IL-6) [pM] | Imax, IL-6 release (IL-6) [%] | IC50 (IL-1β; LPS 50 ng/mL, 24 h) [pM] | enhancement of LPS-induced secretion of IL-8 (IL-8) [fold] | Ca^2+ mobilization in wild-type HEK-293 cells (wild-type HEK-293 cells) | % relative to carageenan-induced level (C57bl/6 mice; 4h) [%] | % relative to carageenan-induced level (C57bl/6 mice; 8h) [%] | % relative to carageenan-induced level (C57bl/6 mice; 24h) [%] | % relative to carageenan-induced level (C57bl/6 mice; 48h) [%] | % reduction relative to carageenan-induced level (C57bl/6 mice; 72h) [%] | % relative to carageenan-induced level (C57bl/6 mice; 72h) [%] | effect on inflammatory response (paw swelling), in words (C57bl/6 mice) | Paw swelling Index: Mean (C57bl/6 mice; Time 4h, 1% carrageenan) | Paw swelling Index: Mean (C57bl/6 mice; Time 8h) | Paw swelling Index: Mean (C57bl/6 mice; Time 24h) | Paw swelling Index: Mean (C57bl/6 mice; Time 48h) | Paw swelling Index: Mean (C57bl/6 mice; Time 72h) | further results
1 | CCCCCCC[C@H](O)c1nc2ccccc2nc1/C=C/[C@@H](O)[C@@H](O)CCCC(=O)OC [(S)-8, Methyl (5S,6R,E)-5,6-Dihydroxy-8-(3-((S)-1-hydroxyoctyl)quinoxalin-2-yl)oct-7-enoate] | Low | lower than the vehicle | 100 | – | – | – | – | – | – | – | – | – | – | – | – | – | – | – | – | – | –
2 | CCCCC[C@@H](O)c1c(/C=C/[C@@H](O)[C@@H](O)CCCC(=O)OC)nc(C)n1C [Compound 5, imidazolo-LXA4] | – | did not display any significant cytotoxic effect | – | – | – | – | – | – | – | – | – | – | – | – | – | – | – | – | – | – | –
3 | CCCCC[C@H](O)/C=C/C=C\C=C\C=C\[C@@H](O)[C@@H](O)CCCC(=O)O [Compound 1, LXA4] | – | – | – | 1 | 99 ± 1 | 1 | 2.5 | without effect | – | – | – | – | – | – | – | – | – | – | – | – | effect on TNF-α-stimulated NF-κB activity (NF-κB): reduced TNF-α-stimulated NF-κB activity
4 | CCCCC[C@@H](O)c1nc2ccccc2nc1/C=C/[C@H]1OC(C)(C)O[C@H]1CCCC(=O)OC [(R)-17, Methyl 4-((4S,5R)-5-((E)-2-(3-((R)-1-Hydroxyhexyl)quinoxalin-2-yl)vinyl)-2,2-dimethyl-1,3-dioxolan-4-yl)butanoate] | – | – | 100 | – | – | – | – | – | 103 | 84 | 92 | 149 | 120 | 220 | no effect | 0.07 | 0.33 | 0.80 | 0.60 | 0.22 | % reduction relative to carageenan-induced level (C57bl/6 mice; 4h): 3%; % reduction relative to carageenan-induced level (C57bl/6 mice; 24h): -8%; % reduction relative to carageenan-induced level (C57bl/6 mice; 48h): 49%
5 | CCCCC[C@@H](O)c1nc2ccccc2nc1/C=C/[C@@H](O)[C@@H](O)CCCC(=O)OC [(R)-6, Methyl (5S,6R,E)-5,6-Dihydroxy-8-(3-((R)-1-hydroxyhexyl)quinoxalin-2-yl)oct-7-enoate] | Low and low cytotoxicity | lower than the vehicle | 500 | 1 | 84 ± 2 | 1 | 2.5 | no calcium release was induced | 116 | 63 | 72 | 53 | 10 | 110 | significantly reduced | 0.08 | 0.25 | 0.63 | 0.21 | 0.11 | PD score, IL-6 release (IL-6; relative to LXA4 (1)): −2; rel. slope, IL-6 release (IL-6; relative to LXA4 (1)): 0.7; Imax, IL-1β release (IL-1β; concentration–response, LPS 50 ng/mL, 24 h): 73 ± 2%; PD score, IL-1β release (IL-1β; relative to LXA4 (1)): −2; rel. slope, IL-1β release (IL-1β; relative to LXA4 (1)): −0.03; attenuation of LPS-induced toxicity (LDH) (THP-1 LUCIA monocytes [2]; LPS 50 ng/mL, 24 h, 1 pM–1 μM): 1.3- to 2.4 fold; % LDH release relative to LPS (THP-1 LUCIA monocytes [2]; highest dose of (R)-6): 77 ± 10%; % LDH release relative to LPS (THP-1 LUCIA monocytes [2]; lowest dose of (R)-6): 42 ± 4%; ΔΤR50: reduction of time taken to reduce the inflammatory response to 50% max (C57bl/6 mice; (R)-6 2 μg/kg ip, relative to vehicle-treated animals): 6 h
